Assay results as given in ChEMBL document CHEMBL2069250, “Indole-2-carboxamides as allosteric modulators of the cannabinoid CB₁ receptor” (J Med Chem, 2012).

Legend:
Format in all cases: cell-based
[1] = biological target: T1, Cannabinoid receptor 2 (Homo sapiens, UniProt P34972); test: Allosteric modulation of human recombinant CB2 receptor expressed in HEK293 cells assessed as inhibition of [3H]CP55940 binding at 10 uM
[2] = biological target: T1, Cannabinoid receptor 2; test: Allosteric modulation of human recombinant CB2 receptor expressed in HEK293 cells assessed as inhibition of [3H]CP55940 binding
[3] = biological target: T2, Cannabinoid receptor 1 (Homo sapiens, UniProt P21554); test: Allosteric modulation of human recombinant CB1 receptor expressed in HEK293 cells assessed as stimulation of [3H]CP55940 binding at 10 uM
T2 sequence (P21554 whole entry): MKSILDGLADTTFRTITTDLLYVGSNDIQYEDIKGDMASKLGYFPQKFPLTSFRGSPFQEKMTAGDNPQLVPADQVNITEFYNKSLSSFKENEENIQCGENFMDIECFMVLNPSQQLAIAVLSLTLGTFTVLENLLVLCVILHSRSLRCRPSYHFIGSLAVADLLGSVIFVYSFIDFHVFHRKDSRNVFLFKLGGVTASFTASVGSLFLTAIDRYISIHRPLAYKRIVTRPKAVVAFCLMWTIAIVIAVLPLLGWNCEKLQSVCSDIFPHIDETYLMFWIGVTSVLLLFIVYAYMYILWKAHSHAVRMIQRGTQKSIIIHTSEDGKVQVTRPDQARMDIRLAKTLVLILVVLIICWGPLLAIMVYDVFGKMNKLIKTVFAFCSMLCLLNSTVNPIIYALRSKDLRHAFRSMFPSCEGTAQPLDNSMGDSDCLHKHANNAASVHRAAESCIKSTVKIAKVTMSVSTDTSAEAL

[4] = biological target: T2, Cannabinoid receptor 1; test: Allosteric modulation of human recombinant CB1 receptor expressed in HEK293 cells assessed as stimulation of [3H]CP55940 binding
[5] = biological target: T2, Cannabinoid receptor 1; test: Allosteric modulation of human recombinant CB1 receptor expressed in HEK293 cells assessed as inhibitor of [3H]CP55940 binding at 10 uM
[6] = biological target: T2, Cannabinoid receptor 1; test: Allosteric modulation of human recombinant CB1 receptor expressed in HEK293 cells assessed as inhibition of [3H]CP55940 binding
[7] = biological target: T1, Cannabinoid receptor 2; test: Allosteric modulation of human recombinant CB2 receptor expressed in HEK293 cells assessed as stimulation of [3H]CP55940 binding at 10 uM
[8] = biological target: T1, Cannabinoid receptor 2; test: Allosteric modulation of human recombinant CB2 receptor expressed in HEK293 cells assessed as stimulation of [3H]CP55940 binding
[9] = biological target: T2, Cannabinoid receptor 1; test: Allosteric modulation of human recombinant CB1 receptor expressed in HEK293 cells assessed as inhibition of [3H]CP55940 binding at 25 uM

T1 sequence (P34972 whole entry): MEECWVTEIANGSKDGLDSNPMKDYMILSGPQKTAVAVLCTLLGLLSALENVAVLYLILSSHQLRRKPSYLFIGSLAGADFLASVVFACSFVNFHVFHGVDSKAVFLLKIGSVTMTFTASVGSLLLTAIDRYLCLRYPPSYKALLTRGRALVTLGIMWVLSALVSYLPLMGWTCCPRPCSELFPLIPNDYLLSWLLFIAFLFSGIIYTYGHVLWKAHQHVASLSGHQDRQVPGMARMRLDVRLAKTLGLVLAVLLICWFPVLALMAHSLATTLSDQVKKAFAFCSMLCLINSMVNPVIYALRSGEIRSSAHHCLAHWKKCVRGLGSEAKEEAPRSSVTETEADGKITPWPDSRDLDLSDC

Row | Structure (SMILES) | inhibition [1] [%] | IC50 [2] [µM] | Activity [3] [%] | EC50 [4] [µM] | inhibition [5] [%] | IC50 [6] [µM] | Activity [7] [%] | EC50 [8] [µM] | inhibition [9] [%]
1 | CCc1c(C(=O)NCCc2ccc(C)cc2)[nH]c2ccc(Cl)cc12 | 29 | > 10 | 189 | 0.55 | – | – | – | – | –
2 | CCc1c(C(=O)OCCc2ccc([N+](=O)[O-])cc2)[nH]c2ccc(Cl)cc12 | 16.8 | > 10 | – | – | 24.7 | > 10 | – | – | –
3 | O=C(NCCc1ccc([N+](=O)[O-])cc1)c1cc2cc(Cl)ccc2[nH]1 | 32.7 | > 10 | 141 | > 10 | – | – | – | – | –
4 | CCc1c(C(=O)NCCc2ccc(N3CCCC3)cc2)[nH]c2ccc(Cl)cc12 | – | – | 134 | > 10 | – | – | 135 | > 10 | –
5 | CCc1c(C(=O)NCCc2ccc(N)cc2)[nH]c2ccc(Cl)cc12 | 31.1 | > 10 | 145 | > 10 | – | – | – | – | –
6 | CCc1c(C(=O)NCCc2ccc(F)cc2)[nH]c2ccc(Cl)cc12 | 37.7 | > 10 | 112 | > 10 | – | – | – | – | –
7 | CNc1ccc(CCNC(=O)c2cc3cc(Cl)ccc3[nH]2)cc1 | 43.7 | > 10 | – | – | 3.8 | > 10 | – | – | –
8 | CCc1c(C(=O)NCCc2ccc(Cl)cc2)[nH]c2ccc(Cl)cc12 | 48.9 | > 10 | 179 | 0.76 | – | – | – | – | –
9 | O=C(NCCc1ccc(Cl)cc1)c1cc2cc(Cl)ccc2[nH]1 | 11.1 | > 10 | 115 | > 10 | – | – | – | – | –
10 | CC(=O)c1c(C(=O)NCCc2ccc(N3CCCCC3)cc2)[nH]c2ccc(Cl)cc12 | 7.9 | > 10 | – | – | – | > 10 | – | – | 19.9
11 | CCc1c(C(=O)OCCc2ccc(N(C)C)cc2)[nH]c2ccc(Cl)cc12 | 65.7 | 5.57 | – | – | 19.6 | > 10 | – | – | –
12 | CCc1c(C(=O)OCCc2ccc(N3CCCCC3)cc2)[nH]c2ccc(Cl)cc12 | 52.7 | 8.26 | – | – | 18 | > 10 | – | – | –
13 | CCc1c(C(=O)NCCc2ccc(N3CCCCC3)cc2)[nH]c2ccc(Cl)cc12 | 20.6 | > 10 | 244 | 0.14 | – | – | – | – | –
14 | CCc1c(C(=O)NCCc2ccc([N+](=O)[O-])cc2)[nH]c2ccc(Cl)cc12 | 0 | > 10 | 242 | 0.36 | – | – | – | – | –
15 | CCc1c(C(=O)NCCc2ccc(N(C)C)cc2)[nH]c2ccc(Cl)cc12 | 22.8 | > 10 | 227 | 0.05 | – | – | – | – | –
16 | CCc1c(C(=O)NCCc2ccc(NC)cc2)[nH]c2ccc(Cl)cc12 | 55.7 | 9.13 | 183 | 0.96 | – | – | – | – | –
17 | CN(C)c1ccc(CCNC(=O)c2cc3cc(Cl)ccc3[nH]2)cc1 | 42.1 | > 10 | 171 | 1.53 | – | – | – | – | –
18 | O=C(NCCc1ccc(N2CCCCC2)cc1)c1cc2cc(Cl)ccc2[nH]1 | 37.9 | > 10 | 207 | 0.09 | – | – | – | – | –
19 | Nc1ccc(CCNC(=O)c2cc3cc(Cl)ccc3[nH]2)cc1 | 37.7 | > 10 | – | – | 3.6 | > 10 | – | – | –
20 | CCc1c(C(=O)NCCc2ccc(N3CCCCC3)cc2)[nH]c2ccccc12 | 55.2 | 8.97 | 244 | 0.81 | – | – | – | – | –
21 | CCc1c(C(=O)NCCc2ccc(N3CCN(C)CC3)cc2)[nH]c2ccc(Cl)cc12 | 66.7 | 6.97 | 132 | > 10 | – | – | – | – | –
22 | Cc1c(C(=O)NCCc2ccc(N3CCCCC3)cc2)[nH]c2ccc(Cl)cc12 | – | – | 243 | 0.23 | – | – | 111 | > 10 | –
23 | CC(O)c1c(C(=O)NCCc2ccc(N3CCCCC3)cc2)[nH]c2ccc(Cl)cc12 (racemic) | 33.1 | > 10 | 180 | 8.45 | – | – | – | – | –
